Values quoted from earlier work as cited in patent US20060099230A1, “Novel formulations of eprosartan with enhanced bioavailability” (priority 2004, published 2006).
Where a name gives a salt, the structure may show the parent alone.

Conditions: for bioavailability (mean absolute / oral): conventional formulation, dose not stated

Row | Compound | bioavailability (mean absolute / oral) | effect of food on absorption (administered with food) | accumulation (chronic use) | absolute bioavailability (following a 300 mg oral dose) | dose proportionality of plasma concentrations (over the 100 mg to 800 mg dose range)
1 | CCCCc1ncc(/C=C(\Cc2cccs2)C(=O)O)n1Cc1ccc(C(=O)O)cc1 [eprosartan mesylate] | 13% |  |  |  | 
2 | CCCCc1ncc(/C=C(\Cc2cccs2)C(=O)O)n1Cc1ccc(C(=O)O)cc1 [eprosartan, (E)-α-[2-n-butyl-1-[(4-carboxyphenyl)methyl]-1H-imidazol-5-yl]methylene-2-thiophenepropionic acid] | 13% | delays absorption | does not significantly accumulate | approximately 13% | slightly less than dose-proportional
